Experimental data reported in PMC10612037 (Viruses, 2023).
Where a name gives a salt, the structure may show the parent alone.

Experiments:
[1] = tested on: HIV-1 subtypes A, B, C, D, CRF_AE, CRF_AG; test: Dose-response assay in TZM-GFP cells, diverse primary isolates
HIV-1 xxLAI = test: microbe, parasite or virus in culture; assay type: cell-based; settings: Human immunodeficiency virus 1; unpassaged HIV-1 xxLAI WT stock virus
[2] = cited from earlier work
[3] = tested on: HIV-1 isolates B, C, CRF_AE, CRF_AG; assay type: cell-based
HIV-1 NL4-3 = test: Dose-response assay in TZM-GFP cells, NL4-3 molecular clones with RT mutations; settings: for major resistance observed: all NL4-3 mutants tested, major = >12-fold for ISL, >4-fold for TDF
HIV-1 RT = tested on: HIV-1 RT; parameters: method as in earlier work; settings: K65R RT; cited from earlier work
[4] = tested on: HIV-1 reverse transcriptase (endogenous RT in virions); test: Endogenous reverse transcriptase assay; assay type: biochemical; settings: K65R virions

Structure (SMILES) | EC50 fold change from NL4-3 ([1]; all subtypes (A, B, C, D, CRF_AE, CRF_AG), 8-10 isolates each) | EC50 (HIV-1 xxLAI) | tolerability ([2]; early clinical studies in humans) | effect on CD4 T cell population ([2]; lower dose of ISL) | effect on CD4 T cells ([2]; subsequent clinical studies, patients on ISL) | fold more susceptible, K65R with Ser68 vs K65R with Gly68 ([3]; CRF_AE backbone) | susceptibility of Ser68 compared with Gly68 ([3]; CRF_AE backbone) | sensitivity of mutant relative to WT ([3]; K65R, regardless of the isolate (B, C, CRF_AE, CRF_AG)) | fold more sensitive than WT (EC50) (HIV-1 NL4-3; NL4-3 K65R) | major resistance observed (HIV-1 NL4-3) | fold more susceptible than wildtype RT (HIV-1 RT) | resistance phenotype (IC50 fold change from WT) [4] | EC50 fold change from NL4-3 ([1]; subtype A) | EC50 fold change from NL4-3 ([1]; subtype B) | EC50 fold change from NL4-3 ([1]; subtype C) | EC50 fold change from NL4-3 ([1]; subtype D) | fold resistance relative to WT (EC50 fold change) (HIV-1 NL4-3; NL4-3 K65R)
C#C[C@]1(CO)O[C@@H](n2cnc3c(N)nc(F)nc32)C[C@@H]1O [ISL, 4′-ethynyl-2-fluoro-2′-deoxyadensine] | no more than 1.3 fold | 3.6 nM | well tolerated | without any effects on the CD4 T cell population | decline in CD4 T cells | 3 fold | more susceptible | hypersensitivity | 4 fold | No major resistance | 4 fold | – | – | – | – | – | –
C[C@@H](Cn1cnc2c(N)ncnc21)OCP(=O)(O)OP(=O)(O)OP(=O)(O)O [TFV-DP] | – | – | – | – | – | – | – | – | – | – | – | conferred resistance | – | – | – | – | –
CC(C)OC(=O)OCOP(=O)(CO[C@H](C)Cn1cnc2c(N)ncnc21)OCOC(=O)OC(C)C [TDF, Tenofovir disoproxil fumarate] | – | 24.6 nM | – | – | – | – | – | – | – | No major resistance | – | – | 1.3 fold | 2.2 fold | 2.2 fold | 1.6 fold | 3 fold
